From patent US20070072209A1, “Methods of treatment and diagnosis of Kaposi's sarcoma (KS) and KS related diseases” (priority 2005, published 2007)

Tests used:
KSHV-infected DMVEC [1] = conditions: cited from earlier work
KSHV-infected DMVEC [2] = conditions: cited from earlier work; remark: listed apart in the source
Uninfected DMVEC = conditions: cited from earlier work
KSHV-infected DMVEC [3] = assay: PMO antisense inhibition of KSHV-induced spindle cell and foci formation (Example 3); format: cell-based, human; conditions: for Extent of PMO-induced Inhibition of Spindle Cell Formation: KSHV-infected DMVEC loaded with gene-specific PMO antisense + EPEI; for Phenotype Inhibition (inhibition of spindle cell formation) / KSHV-induced spindle cell / foci formation (in words): KSHV-infected DMVEC; for Phenotype Inhibition (inhibition of spindle cell formation): gene-specific PMO antisense; for KSHV-induced spindle cell / foci formation (in words): PMO antisense, c-Kit: 1.25 nmol PMO + 2.5 μl EPEI per 35 mm dish
Text: Antisense Gene Silencing using PMOs. […] Silencing of such genes precluded progression into the transformed phenotype when silencing occurred prior to transformation, or induced reversion to the normal state when silencing occurred after induction of the transformed state (see TABLE 2 below).
Introduction of antisense PMO into KSHV-infected DMVEC. Antisense PMO molecules, for delivery purposes, are typically converted to a paired duplex together with a partially complementary cDNA oligonucleotide in the weakly basic delivery reagent ethoxylated polyethylenimine (EPEI) (Summerton, supra). The anionic complex binds to the cell surface, is taken up by endocytosis and eventually released into the cytosol. A protocol for optimum uptake of antisense PMO in immortalized DMVEC was developed using a modification of the EPEI method. Briefly, uninfected, immortalized DMVECs were incubated for 3 hours at 37° C. with 0.6 nmol/well FITC-PMO complexed with EPEI according to the manufacturer's instructions (GeneTools, LLC, One Summerton Way, Philomath, Oreg. 97370) (e.g., 1.25 nMol oligomer with 2.5 μl EPEI reagent per 35 mm dish, allowing for sufficient antisense uptake without non-specific EPEI-induced toxicity). The PMOs were labeled with FITC to allow for monitoring of loading efficiency by fluorescence microscopy.
Specifically, DMVEC were infected with KSHV, plated in 35 mm dishes and allowed to grow to about 90% confluence. For treatment, KSHV-infected cells were treated with the anti-c-Kit PMO-antisense oligomer-EPEI delivery reagent complex and incubated for 3 hours at 37° C. in serum-free medium to allow for oligomer uptake. A titration experiment testing a range of different oligomer/EPEI volumes was used to determine that loading 1.25 nmol oligomer with 2.5 μl EPEI reagent per 35 mm dish allowed efficient antisense uptake without non-specific EPEI-induced toxicity. Control (mock-treated) DMVEC cultures were loaded with EPEI reagent and sterile water or sterile water alone. Upon removal of the oligomer-EPEI solution, cell monolayers were rinsed in serum-free medium fed with complete medium and examined daily for one week by phase microscopy for evidence of phenotypic change.

KSHV-infected DMVEC [4] = assay: XTT proliferation assay of PMO-loaded KSHV-infected DMVEC (Example 3); format: cell-based, human; conditions: PMO antisense silencing
Method: Proliferation assays, and loading of cells with PMOs. Proliferation of KSHV-infected DMVEC was quantified using an XTT (2,3-bis-(2-methoxy-4-nitro-5-sulfophenyl)-2H-tetrazolium-5-carboxanilide, disodium salt)-based assay. KSHV-infected cells were added to Primaria 96-well trays (Becton Dickinson) at 1×10^4 or 5×10^4 cells/well. XTT (Roche, Molecular Biochemicals, Indianapolis, Ind.) was added 48 hours later according to the manufacturer's instructions. Absorbance was read after 4 to 6 hours on a microplate reader.
Briefly, cells were plated in 96-well trays at a density approaching confluence (5×10^4 cells per well) in 100 μl of complete medium. PMOs were loaded the following day in a total of 100 μl (0.5 μl PMO, 0.5 μl EPEI, 49 μl H2O and 50 μl serum free medium) with reagent mixing as described by the manufacturer (GeneTools). Controls included a FITC PMO control oligonucleotide, EPEI only or H2O only. Each variable was performed in quadruplicate. Fresh complete medium was replaced 4 hours after loading. Cells were cultured for 4 days to allow for multi-layered cell growth post-confluence in the absence of any growth inhibition. XTT was added on day 4 of culture and the absorbance read 4 hrs later on a microplate reader. Cell proliferation (growth) values are given as percentage inhibition values, relative to cells without PMO, which are adjusted to 100%.

KSHV-infected DMVEC [5] = assay: Morpholino treatment and focus inhibition assay (Example 5); format: cell-based, human; conditions: for Foci/spindle morpholigical inhibition: PMO-treated KSHV-infected DMVEC vs control PMO, repeated three times
Method: Morpholino Treatment and Focus Inhibition Assay. Phosphorodiamidate morpholino antisense oligonucleotides (PMO-AS) were designed and synthesized by Gene Tools LLC (Philomath, Oreg.) as a Special Delivery formulation, which pairs the morpholino with a partially complementary DNA oligo. A weakly basic delivery agent, Ethoxylated Polyethlyenimine (EPEI) is then used to deliver the anionic morpholino/DNA duplex into the cytosol. PMO-AS were received as sterile, lyophilized solids ([…]) that were solubilized in sterile water to obtain 0.5 mM stock solutions. To load a 35 mm dish of DMVEC at 90% confluence, 5 microl of stock solution was mixed with 5 microl of EPEI delivery solution in 590 μl H20 for 20 minutes at room temperature, and then mixed with 1.5 ml of serum-free RPMI medium. Endothelial growth media was removed from DMVEC, and replaced with the PMO-AS:EPEI:RPMI delivery solution for 3 hours in a 37° C. incubator. After incubation, cells were rinsed, complete endothelial growth medium was added and cells were cultured for up to 10 days without sub-culture, with media replacement every 48-72 hours. This protocol allows for the characteristic post-confluent growth and development of multi-layered spindle-cell aggregates (foci) in KSHV-infected cultures. Cells were monitored daily under the phase microscope to evaluate PMO-AS-inhibition of the development of these foci. At the conclusion of an assay, cells were fixed in 2% paraformaldehyde and stained with a MAB against CD31 (Dako; 1:100) followed by a goat-anti-mouse FITC second conjugate. Junctional staining of cells with CD31 accentuated the disorganized multi-layered nature of the spindle cell aggregates as composed to the flat, organized profile of contact-inhibited cells.
For these assays, KSHV-infected DMVEC monolayers were cultured to 90% confluence and then loaded with each PMO-AS, or maintained as unloaded controls. Cultures were observed daily until control cultures had developed prominent multi-layered aggregates of spindle cells. Typically this took 5-10 days with some variation between replicate experiments. Each experiment was performed at least three times and was performed with mock-infected as well as KSHV-infected DMVEC. As expected, mock-infected DMVEC maintained a quiescent monolayer at confluence, and PMO-AS treatment of uninfected cells occurred without any adverse effect. This observation allowed verification that none of the gene knockdown treatments induced non-specific toxicity in DMVEC. The majority of tested PMO-AS had no effect on the ability of KSHV-infected DMVEC to grow post-confluence and form disorganized, multi-layered foci (TABLE 2).

## Cc1ccc(NC(=O)c2ccc(CN3CCN(C)CC3)cc2)cc1Nc1nccc(-c2cccnc2)n1 [STI 571]
KSHV-infected DMVEC [1]
  nonspecific cytotoxicity (cell viability controls): not due to nonspecific cytotoxicity
  proliferative response to exogenous SCF: inhibited
KSHV-infected DMVEC [2]; KSHV-infected DMVEC
  focus formation: focus formation is inhibited
KSHV-infected DMVEC [2]; even after exposure of cells to a 10 μM dose
  phenotype after removal of drug: regeneration of the transformed phenotype
Uninfected DMVEC
  effect on cell morphology or viability: has effect on cell morphology or viability

## ANGPTL2: PMO antisense to ANGPTL2, AGCATGTCACGCACAGTGGCCTCAT (SEQ ID NO:33) (all phosphorodiamidate morpholino (PMO); delivered paired with partially complementary DNA oligo (Special Delivery))
KSHV-infected DMVEC [3]
  Extent of PMO-induced Inhibition of Spindle Cell Formation: intermediate
  Phenotype Inhibition (inhibition of spindle cell formation): Intermediate
  KSHV-induced spindle cell / foci formation (in words): intermediate inhibitory effects

## IFACTOR: PMO antisense to IFACTOR, AGCTTCATGTTGGAGGTGTTCG (SEQ ID NO:22) (all phosphorodiamidate morpholino (PMO); delivered paired with partially complementary DNA oligo (Special Delivery))
KSHV-infected DMVEC [3]
  Extent of PMO-induced Inhibition of Spindle Cell Formation: none
  Phenotype Inhibition (inhibition of spindle cell formation): None
  KSHV-induced spindle cell / foci formation (in words): little or no affect
KSHV-infected DMVEC [4]
  inhibition of KSHV-induced cellular proliferation (in words): relatively little or no significant inhibition

## IGFBP2: PMO antisense to IGFBP2, GGCAGCCCACTCTCTCGGCAGCATG (SEQ ID NO:16) (all phosphorodiamidate morpholino (PMO); delivered paired with partially complementary DNA oligo (Special Delivery))
KSHV-infected DMVEC [3]
  Extent of PMO-induced Inhibition of Spindle Cell Formation: full
  Phenotype Inhibition (inhibition of spindle cell formation): Full
  KSHV-induced spindle cell / foci formation (in words): fully reversed spindle cell formation
KSHV-infected DMVEC [4]
  inhibition of KSHV-induced cellular proliferation (in words): substantial inhibition
KSHV-infected DMVEC [5]
  Foci/spindle morpholigical inhibition: Full

## INSR: PMO antisense to INSR, GGGTCTCCTCGGATCAGGCGCG (SEQ ID NO:20) (all phosphorodiamidate morpholino (PMO); delivered paired with partially complementary DNA oligo (Special Delivery))
KSHV-infected DMVEC [3]
  Extent of PMO-induced Inhibition of Spindle Cell Formation: intermediate
  Phenotype Inhibition (inhibition of spindle cell formation): Intermediate
  KSHV-induced spindle cell / foci formation (in words): intermediate inhibitory effects
KSHV-infected DMVEC [4]
  inhibition of KSHV-induced cellular proliferation (in words): substantial inhibition
KSHV-infected DMVEC [5]; PMO-AS, KSHV-infected DMVEC, 5-10 days
  effect on phenotype (foci, spindle shape) in focus-inhibition assay (in words): marginal but reproducible effect on phenotype
KSHV-infected DMVEC [5]
  Foci/spindle morpholigical inhibition: Intermediate

## K1AA0367: PMO antisense to KIAA0367, GTCAGTTTACTCATGTCATCTATTG (SEQ ID NO:18) (all phosphorodiamidate morpholino (PMO); delivered paired with partially complementary DNA oligo (Special Delivery))
KSHV-infected DMVEC [3]
  Extent of PMO-induced Inhibition of Spindle Cell Formation: intermediate
  Phenotype Inhibition (inhibition of spindle cell formation): Intermediate
  KSHV-induced spindle cell / foci formation (in words): intermediate inhibitory effects
KSHV-infected DMVEC [4]
  inhibition of KSHV-induced cellular proliferation (in words): substantial inhibition

## LMO2: PMO antisense to LMO2, GCCGAGGACATTGGGGAGGGAGGCG (SEQ ID NO:23) (all phosphorodiamidate morpholino (PMO); delivered paired with partially complementary DNA oligo (Special Delivery, EPEI))
KSHV-infected DMVEC [3]
  Extent of PMO-induced Inhibition of Spindle Cell Formation: none
  KSHV-induced spindle cell / foci formation (in words): little or no affect
KSHV-infected DMVEC [5]
  Foci/spindle morpholigical inhibition: None

## LOX: PMO antisense to LOX, GGAGCACGGTCCAGGCGAAGCGCAT (SEQ ID NO:31) (all phosphorodiamidate morpholino (PMO); delivered paired with partially complementary DNA oligo (Special Delivery, EPEI))
KSHV-infected DMVEC [3]
  Extent of PMO-induced Inhibition of Spindle Cell Formation: full
  Phenotype Inhibition (inhibition of spindle cell formation): Full
  KSHV-induced spindle cell / foci formation (in words): fully reversed spindle cell formation

## MFAP3: PMO antisense to MFAP3, TGAATAAGCAACAATGTAGCTTCAT (SEQ ID NO:24) (all phosphorodiamidate morpholino (PMO); delivered paired with partially complementary DNA oligo (Special Delivery, EPEI))
KSHV-infected DMVEC [3]
  Extent of PMO-induced Inhibition of Spindle Cell Formation: none
  Phenotype Inhibition (inhibition of spindle cell formation): no and None
  KSHV-induced spindle cell / foci formation (in words): little or no affect
KSHV-infected DMVEC [4]
  inhibition of KSHV-induced cellular proliferation (in words): relatively little or no significant inhibition
KSHV-infected DMVEC [5]
  Foci/spindle morpholigical inhibition: None

## NOV: PMO antisense to NOV, AGCTCGTGCTCTGCACACTCTGCAT (SEQ ID NO:32) (all phosphorodiamidate morpholino (PMO); delivered paired with partially complementary DNA oligo (Special Delivery, EPEI))
KSHV-infected DMVEC [3]
  Extent of PMO-induced Inhibition of Spindle Cell Formation: full
  Phenotype Inhibition (inhibition of spindle cell formation): Full
  KSHV-induced spindle cell / foci formation (in words): fully reversed spindle cell formation

## Osteopontin
KSHV-infected DMVEC [3]
  Phenotype Inhibition (inhibition of spindle cell formation): None
KSHV-infected DMVEC [4]
  inhibition of KSHV-induced cellular proliferation (in words): relatively little or no significant inhibition
KSHV-infected DMVEC [5]
  Foci/spindle morpholigical inhibition: None
